System: rat PCA response
Test: Rat Passive Cutaneous Anaphylaxis (PCA) test
Assay type: in vivo, rat (Wistar)
Conditions: sc, subcutaneous
Protocol: Some of the ω-nitroacetophenones prepared in the preceding Examples were submitted for biological testing. The test system was the Rat Passive Cutaneous Anaphylaxis (PCA) test described below in (ii).
i. Serum containing heat labile homocytotropic antibody was raised in rats by a method similar to that used by Mota. (I. Mota Immunology 1964, 7, 681).
Male Wistar rats of 250-300 g, were injected intraperitoneally with 0.5 ml of Bordatella pertussis vaccine (containing 4 × 10^10 dead organism per ml) and subcutaneously with 0.5 ml of an emulsion of 100 mg. of ovalbumin in 2 ml of saline and 3 ml of incomplete Freunds' adjuvant. Rats were bled by cardiac puncture on day 18, the blood was pooled and separated and serum stored at -20° and thawed only once before use.
ii. The P.C.A. test was similar to that described by Ovary and Bier (A. Ovary and O. E. Bier, Prod. Soc. Exp. Biol. Med. 1952, 81, 584) and Goose and Blair (J. Goose and AM.J. N Blair, Immunology 1969, 16, 769)
0.1 ml of each of six twofold serial dilutions of the serum in 0.9% saline were injected intradermally into separate sites on the shaved dorsal surface of 250-350 g Wistar rats. 72 hours later the animals were challlenged by i.v. injection of 0.3 ml of 1% ovalbumin mixed with 0.1 ml of a 5% solution of pontamine sky blue dye both in isotonic saline buffered with pH. 7.2 Sorenson buffer (P.B.S.). The rats were killed after 20 minutes and the diameter of the blue wheals at the antibody injection sites were measured. The starting dilution of the serum was adjusted so that there was no response, after challenge, at the site of injection of the highest dilution and a maximum response at the two or three lowest dilutions. Typically, six twofold serial dilutions of the serum from 1/4 to 1/128 were used.
Compounds were tested for their ability to reduce the diameter of the wheals at the injection sites of dilutions of antibody which on all the controls have less than maximum response. Amounts of the compounds were administered to rats by subcutaneous injection, into the nuchal region, of a solution of the compound in P.B.S. or as a suspension in 1% methyl cellulose, each amount to a test group of six animals at a specified time prior to intravenous challenge with ovalbumin. THe diameters of the blue wheals which developed on the tests group of aimals were compared with those on a control group of six animals treated in the same way as the test group, but which; had received an equivalent subcutaneous injection of the carrier fluid not containing the same volume of the compound under test.
% Inhibition of P.C.A. = 100 (1 - a/b)
a = The mean of the sum of the diameters of the wheals produced in the test group of animals at those antibody sites where all the control group of animals gave less than maximum response.
b = The mean of the sum of diameters of the wheals produced in the control group of amimals at those antibody sites where all the animals in the group gave less than maximum response.
The preferred method of administration was a solution of the test compound dissolved in pH 7.2 buffer and neutralised with sodium bicarbonate. For those compounds having insoluble sodium salts, the salts were isolated by reaction of the free nitro compound with 2.5N sodium hydroxide and the filtered sodium salt washed free of alkali with water. The dried salts were then administered as a suspension in 1% methyl cellulose.

Compound | inhibition in vivo at 25 mg/kg (0 mins prior to challenge) [%] | inhibition in vivo at 25 mg/kg (60 mins prior to challenge) [%] | inhibition in vivo at 100 mg/kg (0 mins prior to challenge) [%] | inhibition in vivo at 100 mg/kg (60 mins prior to challenge) [%] | inhibition in vivo at 25 mg/kg (30 mins prior to challenge) [%] | inhibition in vivo at 100 mg/kg (30 mins prior to challenge) [%] | inhibition in vivo at 84 mg/kg (0 mins prior to challenge) [%] | inhibition in vivo at 84 mg/kg (30 mins prior to challenge) [%]
COC(=O)c1ccccc1C(=O)C[N+](=O)[O-] [Example 1, 2-methoxycarbonyl-ω-nitroacetophenone] | 0 | 32 | 12 | 23 |  |  |  | 
CCOC(=O)c1ccccc1C(=O)C[N+](=O)[O-] [Example 2, 2-ethoxycarbonyl-ω-nitroacetophenone] | 22 | 57 | 34 | 58 |  |  |  | 
COC(=O)c1cc(C)c(C)cc1C(=O)C[N+](=O)[O-] [Example 3, 2-methoxycarbonyl-4,5-dimethyl-ω-nitroacetophenone] | 22 | 51 | 34 | 58 |  |  |  | 
CCOC(=O)c1cc(C)c(C)cc1C(=O)C[N+](=O)[O-] [Example 4, 2-ethoxycarbonyl-4,5-dimethyl-ω-nitroacetophenone] | 12 | 53 | 16 | 42 |  |  |  | 
CCCOC(=O)c1cc(C)c(C)cc1C(=O)C[N+](=O)[O-] [Example 5, 2-^n propoxycarbonyl-4,5-dimethyl-ω-nitroacetophenone] | 7 | 44 | 11 | 54 |  |  |  | 
Cc1cc(C(=O)C[N+](=O)[O-])c(C(=O)OC(C)C)cc1C [Example 6, 2-Isopropoxycarbonyl-4,5-dimethyl-ω-nitroacetophenone] | 16 |  | 30 |  | 20 | 41 |  | 
COC(=O)c1cccc(-c2ccccc2)c1C(=O)C[N+](=O)[O-] [Example 7] | 8 | -13 | 14 | -2 |  |  |  | 
O=C(O)c1ccccc1C(=O)C[N+](=O)[O-] [Example 8, ω-nitroacetophenone-2-carboxylic acid] | 12 |  | 48 |  | 18 | 37 |  | 
Cc1cc(C(=O)O)c(C(=O)C[N+](=O)[O-])cc1C [Example 9, 4,5-dimethyl-ω-nitroacetophenone-2-carboxylic acid] | 33 | 13 | 57 | 32 |  |  |  | 
O=C(C[N+](=O)[O-])c1cccc(-c2ccccc2)c1C(=O)O [Example 10, ω-nitro-3-phenylacetophenone-2-carboxylic acid] | 2 |  |  |  | 11 |  | 23 | 21
